Experimental data reported in ChEMBL document CHEMBL1136221, “Analysis of the critical structural determinant(s) of species-selective peroxisome proliferator-activated receptor alpha (PPAR alpha)-activation by phenylpropanoic acid-type PPAR alpha agonists” (Bioorg Med Chem Lett, 2003).
Numbering of substitutions follows the chain as printed.

How the values were obtained:
Type in all cases: cell-based
[1] = target: Peroxisome proliferator-activated receptor alpha (Homo sapiens, UniProt Q07869, T279M); assay: Transcriptional activation activity on human T279M-mutant Peroxisome proliferator activated receptor alpha expressed in CHO-K1 cells
[2] = system: T1, Peroxisome proliferator-activated receptor alpha (Homo sapiens), Q07869 [I272F]; assay: Transcriptional activation activity on human I272F-mutant Peroxisome proliferator activated receptor alpha expressed in CHO-K1 cells at 10 uM
T1 sequence (whole entry): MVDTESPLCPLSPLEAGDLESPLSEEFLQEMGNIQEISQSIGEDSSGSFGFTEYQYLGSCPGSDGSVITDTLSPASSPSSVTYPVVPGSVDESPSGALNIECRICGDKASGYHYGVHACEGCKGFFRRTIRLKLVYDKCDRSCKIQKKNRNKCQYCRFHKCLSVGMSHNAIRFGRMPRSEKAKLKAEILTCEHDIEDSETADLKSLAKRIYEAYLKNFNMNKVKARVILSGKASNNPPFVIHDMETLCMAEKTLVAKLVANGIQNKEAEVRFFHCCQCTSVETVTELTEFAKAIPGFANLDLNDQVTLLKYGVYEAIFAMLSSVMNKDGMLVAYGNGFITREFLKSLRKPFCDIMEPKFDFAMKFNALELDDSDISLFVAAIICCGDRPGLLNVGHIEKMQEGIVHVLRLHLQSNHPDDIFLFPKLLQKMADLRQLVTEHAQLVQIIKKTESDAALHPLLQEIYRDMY

[3] = system: Peroxisome proliferator-activated receptor alpha (Homo sapiens), Q07869 [UNDEFINED MUTATION]; assay: Ratio of transcriptional activation of T279M mutant compared to wild type PPAR-GAL4 chimeric receptors in CHO-K1 cells
[4] = target: T2, Peroxisome proliferator-activated receptor alpha (Homo sapiens, UniProt Q07869); assay: Transcriptional activation activity on human Peroxisome proliferator activated receptor alpha expressed in CHO-K1 cells
T2 sequence (Q07869 whole entry): T1 sequence (whole entry) with F272I

[5] = system: Peroxisome proliferator-activated receptor alpha (Homo sapiens), Q07869 [UNDEFINED MUTATION]; assay: Ratio of transcriptional activation of I272F mutant compared to wild type PPAR-GAL4 chimeric receptors in CHO-K1 cells
[6] = target: Peroxisome proliferator-activated receptor alpha (Homo sapiens, UniProt Q07869, I272F); assay: Transcriptional activation activity on human I272F-mutant Peroxisome proliferator activated receptor alpha expressed in CHO-K1 cells

Peroxisome proliferator-activated receptor alpha (Homo sapiens), Q07869 [UNDEFINED MUTATION], sequence (Q07869 whole entry, looked up, stated change not applied, the tested form may be a part): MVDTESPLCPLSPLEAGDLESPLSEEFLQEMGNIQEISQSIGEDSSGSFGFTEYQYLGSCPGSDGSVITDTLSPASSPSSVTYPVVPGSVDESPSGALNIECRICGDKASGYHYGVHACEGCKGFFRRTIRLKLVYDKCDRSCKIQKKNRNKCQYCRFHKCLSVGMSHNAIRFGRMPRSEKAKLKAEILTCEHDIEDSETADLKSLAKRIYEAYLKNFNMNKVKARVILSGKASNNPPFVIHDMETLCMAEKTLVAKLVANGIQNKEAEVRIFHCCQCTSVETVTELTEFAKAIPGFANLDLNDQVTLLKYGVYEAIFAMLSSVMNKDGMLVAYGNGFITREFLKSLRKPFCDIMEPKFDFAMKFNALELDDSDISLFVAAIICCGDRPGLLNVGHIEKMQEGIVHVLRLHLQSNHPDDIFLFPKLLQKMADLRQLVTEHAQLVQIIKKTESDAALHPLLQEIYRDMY
Peroxisome proliferator-activated receptor alpha (Homo sapiens, UniProt Q07869, T279M), sequence (Q07869 whole entry T279M): as the sequence (Q07869 whole entry, looked up, stated change not applied, the tested form may be a part) above, with T279M counted along it

Row | EC50 [1] [nM] | inhibition [2] [%] | Ratio [3] | EC50 [4] [nM] | Ratio [5] | EC50 [6] [nM] | SMILES
1 | 11400 | 30 | 3.37 | 3380 | – | – | CC[C@@H](Cc1ccc(OC)c(C(=O)NCc2ccccc2)c1)C(=O)O
2 | 16100 | – | 5.92 | 2720 | 12.3 | 33400 | CC[C@@H](Cc1ccc(OC)c(OCCc2ccc(C(F)(F)F)cc2)c1)C(=O)O
3 | 14 | – | 2.28 | 0.615 | 108 | 667 | CC[C@@H](Cc1ccc(OC)c(C(=O)NCc2ccc(Oc3ccc(F)cc3)cc2)c1)C(=O)O
4 | 309 | – | – | 80.3 | – | 2820 | CC[C@@H](Cc1ccc(OC)c(C(=O)NCc2ccc(C(F)(F)F)cc2)c1)C(=O)O
